Measured values as given in US20260092179A1, “GENETICALLY MODIFIED HOST CELLS PRODUCING VIOLACEIN, ANALOGUES, AND DERIVATIVES THEREOF” (OCTARINE BIO APS, priority 2022, published 2026).
≈ marks a conversion by molar mass, not a printed value.

Tests used:
[1] = Acidic pH stability of dyed fabrics (colour fastness, ΔE); assay type: physicochemical; settings: pH 5 with HCl
Experimental: In order to assess the stability and colour fastness of violacein and violacein derivatives dyed onto fabrics, dyed fabrics were subjected to a number of conditions. Fabrics were dyed according to Example 18 and colour coordinates and colour change before and after exposure to a given condition were determined as described in Example 18. To measure temperature stability, fabrics were incubated in an oven set to 80° c. for 4 h. To measure stability under acid and alkaline conditions, fabrics were fully submerged in water solutions set to pH 8 with NaOH and pH 5 with HCl and incubated at room temperature for 30 minutes. Fabrics were then incubated at 37° c. for 4 h. To measure stability during laundering, fabrics were washed at 30° c. under the “mix” setting of a Siemens IQ300 washing machine, then dried in a Siemens IQ300 dryer until dry. To measure artificial light stability, fabrics were placed under an LED lamp at room temperature for 16 h. To measure UV light stability, fabrics were placed under a UV lamp at room temperature for 1 h.

[2] = Solubility of violacein in 100% methanol (stock solutions); assay type: physicochemical; settings: organic solvent or mixture, read-out: soluble in 100% methanol
Source text: In Example 7, S. cerevisiae was engineered to produce violacein and 3 other violacein derivatives (deoxyviolacein, proviolacein, and prodeoxyviolacein). However, during cultivation experiments a number of issues were observed. […] On agar plate we also observed a number of colonies losing their colour, indicating rapid selection against the introduced biosynthetic pathway. […] Issues with toxicity, solubility, and product export have significant negative effects on production of these compounds and limit the commercial viability. To overcome these issues, we investigated whether glycosylation of the compounds could provide a positive impact and improve production. Because violacein and violacein derivatives are not naturally glycosylated, we first sought to identify heterologous glycosyltransferase enzymes displaying promiscuous activity towards these compounds by running a series of in vitro glycosyltransferase enzyme assays using violacein and violacein derivatives as substrate

[3] = Acrylic, before and after the stability test
[4] = Bleached cotton, before and after the stability test
[5] = Diacetate, before and after the stability test
[6] = Nylon 6,6, before and after the stability test
[7] = Polyester, before and after the stability test
[8] = Wool, before and after the stability test

Structure (SMILES): O=C1NC(c2c[nH]c3ccccc23)=C/C1=C1\C(=O)Nc2ccccc21 [deoxyviolacein]
- L ([1]; Acrylic, After test): 59.8
- a ([1]; Acrylic, After test): 2.01
- b ([1]; Acrylic, After test): −3.77
- L ([1]; Acrylic, Before test): 58.82
- a ([1]; Acrylic, Before test): 2.34
- b ([1]; Acrylic, Before test): −2.86
- ΔE [1, 3]: 1.38
- L ([1]; Bleached cotton, After test): 60.27
- a ([1]; Bleached cotton, After test): 0.74
- b ([1]; Bleached cotton, After test): −8.67
- L ([1]; Bleached cotton, Before test): 58.08
- a ([1]; Bleached cotton, Before test): 1.02
- b ([1]; Bleached cotton, Before test): −7.23
- ΔE [1, 4]: 2.64
- L ([1]; Diacetate, After test): 46.41
- a ([1]; Diacetate, After test): 12.25
- b ([1]; Diacetate, After test): −16.83
- L ([1]; Diacetate, Before test): 46.86
- a ([1]; Diacetate, Before test): 12.01
- b ([1]; Diacetate, Before test): −17.99
- ΔE [1, 5]: 1.27
- L ([1]; Nylon 6,6, After test): 44.46
- a ([1]; Nylon 6,6, After test): 6.37
- b ([1]; Nylon 6,6, After test): −22.27
- L ([1]; Nylon 6,6, Before test): 43
- a ([1]; Nylon 6,6, Before test): 5.21
- b ([1]; Nylon 6,6, Before test): −20.47
- ΔE [1, 6]: 2.59
- L ([1]; Polyester, After test): 64.95
- a ([1]; Polyester, After test): 2.03
- b ([1]; Polyester, After test): −5.57
- L ([1]; Polyester, Before test): 62.77
- a ([1]; Polyester, Before test): 2
- b ([1]; Polyester, Before test): −5.04
- ΔE [1, 7]: 2.24
- L ([1]; Wool, After test): 64.01
- a ([1]; Wool, After test): 0.41
- b ([1]; Wool, After test): −0.81
- L ([1]; Wool, Before test): 63.73
- a ([1]; Wool, Before test): 0.62
- b ([1]; Wool, Before test): −0.94
- ΔE [1, 8]: 0.37

Structure (SMILES): O=C1NC(c2c[nH]c3ccc(O)cc23)=C/C1=C1\C(=O)Nc2ccccc21 [violacein]
- solubility [2]: 5 mM (≈ 1720 µg/mL)
- L ([1]; Acrylic, After test): 66.03
- a ([1]; Acrylic, After test): 2.78
- b ([1]; Acrylic, After test): 0.02
- L ([1]; Acrylic, Before test): 65.53
- a ([1]; Acrylic, Before test): 2.41
- b ([1]; Acrylic, Before test): 0.93
- ΔE [1, 3]: 1.10
- L ([1]; Bleached cotton, After test): 59.6
- a ([1]; Bleached cotton, After test): 2.72
- b ([1]; Bleached cotton, After test): −7.71
- L ([1]; Bleached cotton, Before test): 59.65
- a ([1]; Bleached cotton, Before test): 3.71
- b ([1]; Bleached cotton, Before test): −6.68
- ΔE [1, 4]: 1.43
- L ([1]; Diacetate, After test): 45.59
- a ([1]; Diacetate, After test): 9.13
- b ([1]; Diacetate, After test): −11.74
- L ([1]; Diacetate, Before test): 45.97
- a ([1]; Diacetate, Before test): 8.41
- b ([1]; Diacetate, Before test): −13
- ΔE [1, 5]: 1.50
- L ([1]; Nylon 6,6, After test): 34.94
- a ([1]; Nylon 6,6, After test): 5.43
- b ([1]; Nylon 6,6, After test): −20.31
- L ([1]; Nylon 6,6, Before test): 34.82
- a ([1]; Nylon 6,6, Before test): 5.47
- b ([1]; Nylon 6,6, Before test): −20.22
- ΔE [1, 6]: 0.16
- L ([1]; Polyester, After test): 68.04
- a ([1]; Polyester, After test): 1.96
- b ([1]; Polyester, After test): −1.34
- L ([1]; Polyester, Before test): 66.71
- a ([1]; Polyester, Before test): 3.52
- b ([1]; Polyester, Before test): −2.04
- ΔE [1, 7]: 2.17
- L ([1]; Wool, After test): 69.34
- a ([1]; Wool, After test): 1.2
- b ([1]; Wool, After test): 0.61
- L ([1]; Wool, Before test): 69.04
- a ([1]; Wool, Before test): 0.77
- b ([1]; Wool, Before test): 1.2
- ΔE [1, 8]: 0.79

Structure (SMILES): O=C1N=C(c2c[nH]c3ccc(O)cc23)C=C1c1c[nH]c2ccccc12 [proviolacein]
- L ([1]; Acrylic, After test): 58.2
- a ([1]; Acrylic, After test): −1.53
- b ([1]; Acrylic, After test): 3.12
- L ([1]; Acrylic, Before test): 59.15
- a ([1]; Acrylic, Before test): −0.61
- b ([1]; Acrylic, Before test): 1.45
- ΔE [1, 3]: 2.13
- L ([1]; Bleached cotton, After test): 65.48
- a ([1]; Bleached cotton, After test): 1.87
- b ([1]; Bleached cotton, After test): 2.2
- L ([1]; Bleached cotton, Before test): 62.48
- a ([1]; Bleached cotton, Before test): 1.73
- b ([1]; Bleached cotton, Before test): 2.27
- ΔE [1, 4]: 3.00
- L ([1]; Diacetate, After test): 59.6
- a ([1]; Diacetate, After test): 4.35
- b ([1]; Diacetate, After test): 7.87
- L ([1]; Diacetate, Before test): 60.94
- a ([1]; Diacetate, Before test): 4.79
- b ([1]; Diacetate, Before test): 4.9
- ΔE [1, 5]: 3.29
- L ([1]; Nylon 6,6, After test): 52.72
- a ([1]; Nylon 6,6, After test): −1.67
- b ([1]; Nylon 6,6, After test): −3.52
- L ([1]; Nylon 6,6, Before test): 50.84
- a ([1]; Nylon 6,6, Before test): 0.04
- b ([1]; Nylon 6,6, Before test): −4.68
- ΔE [1, 6]: 2.79
- L ([1]; Polyester, After test): 64.14
- a ([1]; Polyester, After test): −1.28
- b ([1]; Polyester, After test): 2.92
- L ([1]; Polyester, Before test): 64.55
- a ([1]; Polyester, Before test): −1.43
- b ([1]; Polyester, Before test): 1.3
- ΔE [1, 7]: 1.68
- L ([1]; Wool, After test): 66.56
- a ([1]; Wool, After test): −0.93
- b ([1]; Wool, After test): 5.56
- L ([1]; Wool, Before test): 65.49
- a ([1]; Wool, Before test): −1.55
- b ([1]; Wool, Before test): 5.81
- ΔE [1, 8]: 1.26
